# In patent US7118895B2, “Process for producing aglycon by using diglycosidase and flavor-improved food containing the aglycon and converting agent to be used in the process” (Amano Enzyme Inc., priority 2000, dated 2006):
# Legend:
# Purified diglycosidase = test: Influence of free glucose on diglycosidase activity; assay type: biochemical, Penicillium multicolor IAM7153; conditions: isolated aglycon amount at glucose 0% and 0.5 hour = 100%
# Procedure: Purified diglycosidase was diluted with 20 mM acetate buffer of pH 4.0 to prepare a 0.75 AU/mL enzyme solution.
# With a glucose solution was mixed 10 μL of each 2 mM substrate solution described in Example 2, and 20 mM acetate buffer of pH 4.0 was added thereto to be a liquid volume of 210 μL. Further, 40 μL of the enzyme solution was added and reaction was carried out at a final liquid volume of 250 μL. Adjustment of the glucose solution to be added allows glucose to exist in the reaction mixture in the range of 0 to 20%. The reaction was carried out at 55° C. and the existence of isoflavone glycosides and aglycon isoflavones was detected by HLPC at 0, 0.5, 1, and 3 hours of the reaction.
# Crude diglycosidase = test: Examination of pH in the conversion into isoflavone aglycons by diglycosidase using soybean materials; assay type: biochemical, Penicillium multicolor IAM7153; conditions: for Decomposition efficiency of glycitin family in roasted soy flour / Decomposition efficiency of glycitin family in soymilk: 55° C.
# Method in brief: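 Soybean materials (roasted soy flour, soymilk, defatted soybean, concentrated soy protein) suspended and adjusted to pH 2–11. Crude diglycosidase added at 1.88 AU/mL enzyme solution and reacted at 55° C. Ethanol-stopped at 0, 1, 3 and 6 h; isoflavone glycosides and aglycons detected by HPLC.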
smiles,measurement,setting,value
"COc1cc2c(=O)c(-c3ccc(O)cc3)coc2cc1O[C@@H]1O[C@H](COC(=O)CC(=O)O)[C@@H](O)[C@H](O)[C@H]1O [malonylglycitin, 6″-O-malonylglycitin]",Isolation of isoflavone aglycons by diglycosidase in presence of glucose,Purified diglycosidase; Glucose concentration 0 %,100%
same,Isolation of isoflavone aglycons by diglycosidase in presence of glucose,Purified diglycosidase; Glucose concentration 2 %,121.4%
same,Isolation of isoflavone aglycons by diglycosidase in presence of glucose,Purified diglycosidase; Glucose concentration 4 %,127.6%
same,Isolation of isoflavone aglycons by diglycosidase in presence of glucose,Purified diglycosidase; Glucose concentration 8 %,128.6%
same,Isolation of isoflavone aglycons by diglycosidase in presence of glucose,Purified diglycosidase; Glucose concentration 20 %,116.4%
same,Decomposition efficiency of glycitin family in concentrated soybean protein,"Crude diglycosidase; pH1.6, heat treatment of enzyme: no, reaction time 0 h",0.4%
same,Decomposition efficiency of glycitin family in concentrated soybean protein,"Crude diglycosidase; pH1.6, heat treatment of enzyme: no, reaction time 1 h",0.4%
same,Decomposition efficiency of glycitin family in concentrated soybean protein,"Crude diglycosidase; pH1.6, heat treatment of enzyme: no, reaction time 3 h",0.4%
same,Decomposition efficiency of glycitin family in concentrated soybean protein,"Crude diglycosidase; pH1.6, heat treatment of enzyme: no, reaction time 6 h",0.4%
same,Decomposition efficiency of glycitin family in concentrated soybean protein,"Crude diglycosidase; pH1.6, heat treatment of enzyme: yes, reaction time 6 h",0.4%
same,Decomposition efficiency of glycitin family in roasted soy flour,"Crude diglycosidase; pH2, heat treatment of enzyme no, reaction time 0 h",not detected
same,Decomposition efficiency of glycitin family in roasted soy flour,"Crude diglycosidase; pH2, heat treatment of enzyme no, reaction time 1 h",not detected
same,Decomposition efficiency of glycitin family in roasted soy flour,"Crude diglycosidase; pH2, heat treatment of enzyme no, reaction time 3 h",not detected
same,Decomposition efficiency of glycitin family in roasted soy flour,"Crude diglycosidase; pH2, heat treatment of enzyme no, reaction time 6 h",not detected
same,Decomposition efficiency of glycitin family in roasted soy flour,"Crude diglycosidase; pH2, heat treatment of enzyme yes, reaction time 6 h",not detected
same,Decomposition efficiency of glycitin family in soymilk,"Crude diglycosidase; pH2.3, heat treatment of enzyme no, reaction time 0 h",42.6
same,Decomposition efficiency of glycitin family in soymilk,"Crude diglycosidase; pH2.3, heat treatment of enzyme no, reaction time 1 h",51.3
same,Decomposition efficiency of glycitin family in soymilk,"Crude diglycosidase; pH2.3, heat treatment of enzyme no, reaction time 3 h",47.7
same,Decomposition efficiency of glycitin family in soymilk,"Crude diglycosidase; pH2.3, heat treatment of enzyme no, reaction time 6 h",46.5
same,Decomposition efficiency of glycitin family in soymilk,"Crude diglycosidase; pH2.3, heat treatment of enzyme yes, reaction time 6 h",41.3
same,Decomposition efficiency of glycitin family in defatted soybean,"Crude diglycosidase; pH2.6, heat treatment of enzyme: no, reaction time 0 h",100.0%
same,Decomposition efficiency of glycitin family in defatted soybean,"Crude diglycosidase; pH2.6, heat treatment of enzyme: no, reaction time 1 h",100.0%
same,Decomposition efficiency of glycitin family in defatted soybean,"Crude diglycosidase; pH2.6, heat treatment of enzyme: no, reaction time 3 h",100.0%
same,Decomposition efficiency of glycitin family in defatted soybean,"Crude diglycosidase; pH2.6, heat treatment of enzyme: no, reaction time 6 h",100.0%
same,Decomposition efficiency of glycitin family in defatted soybean,"Crude diglycosidase; pH2.6, heat treatment of enzyme: yes, reaction time 6 h",100.0%
same,Decomposition efficiency of glycitin family in concentrated soybean protein,"Crude diglycosidase; pH2.7, heat treatment of enzyme: no, reaction time 0 h",0.4%
same,Decomposition efficiency of glycitin family in concentrated soybean protein,"Crude diglycosidase; pH2.7, heat treatment of enzyme: no, reaction time 1 h",0.5%
same,Decomposition efficiency of glycitin family in concentrated soybean protein,"Crude diglycosidase; pH2.7, heat treatment of enzyme: no, reaction time 3 h",0.5%
same,Decomposition efficiency of glycitin family in concentrated soybean protein,"Crude diglycosidase; pH2.7, heat treatment of enzyme: no, reaction time 6 h",0.5%
same,Decomposition efficiency of glycitin family in concentrated soybean protein,"Crude diglycosidase; pH2.7, heat treatment of enzyme: yes, reaction time 6 h",0.4%
same,Decomposition efficiency of glycitin family in roasted soy flour,"Crude diglycosidase; pH3, heat treatment of enzyme no, reaction time 0 h",not detected
same,Decomposition efficiency of glycitin family in roasted soy flour,"Crude diglycosidase; pH3, heat treatment of enzyme no, reaction time 1 h",not detected
same,Decomposition efficiency of glycitin family in roasted soy flour,"Crude diglycosidase; pH3, heat treatment of enzyme no, reaction time 3 h",not detected
same,Decomposition efficiency of glycitin family in roasted soy flour,"Crude diglycosidase; pH3, heat treatment of enzyme no, reaction time 6 h",not detected
same,Decomposition efficiency of glycitin family in roasted soy flour,"Crude diglycosidase; pH3, heat treatment of enzyme yes, reaction time 6 h",not detected
same,Decomposition efficiency of glycitin family in defatted soybean,"Crude diglycosidase; pH3.4, heat treatment of enzyme: no, reaction time 0 h",100.0%
same,Decomposition efficiency of glycitin family in defatted soybean,"Crude diglycosidase; pH3.4, heat treatment of enzyme: no, reaction time 1 h",100.0%
same,Decomposition efficiency of glycitin family in defatted soybean,"Crude diglycosidase; pH3.4, heat treatment of enzyme: no, reaction time 3 h",100.0%
same,Decomposition efficiency of glycitin family in defatted soybean,"Crude diglycosidase; pH3.4, heat treatment of enzyme: no, reaction time 6 h",100.0%
same,Decomposition efficiency of glycitin family in defatted soybean,"Crude diglycosidase; pH3.4, heat treatment of enzyme: yes, reaction time 6 h",100.0%
same,Decomposition efficiency of glycitin family in soymilk,"Crude diglycosidase; pH3.5, heat treatment of enzyme no, reaction time 0 h",42.6
same,Decomposition efficiency of glycitin family in soymilk,"Crude diglycosidase; pH3.5, heat treatment of enzyme no, reaction time 1 h",21.9
same,Decomposition efficiency of glycitin family in soymilk,"Crude diglycosidase; pH3.5, heat treatment of enzyme no, reaction time 3 h",not detected
same,Decomposition efficiency of glycitin family in soymilk,"Crude diglycosidase; pH3.5, heat treatment of enzyme no, reaction time 6 h",not detected
same,Decomposition efficiency of glycitin family in soymilk,"Crude diglycosidase; pH3.5, heat treatment of enzyme yes, reaction time 6 h",38.2
same,Decomposition efficiency of glycitin family in concentrated soybean protein,"Crude diglycosidase; pH3.7, heat treatment of enzyme: no, reaction time 0 h",0.4%
same,Decomposition efficiency of glycitin family in concentrated soybean protein,"Crude diglycosidase; pH3.7, heat treatment of enzyme: no, reaction time 1 h",0.5%
same,Decomposition efficiency of glycitin family in concentrated soybean protein,"Crude diglycosidase; pH3.7, heat treatment of enzyme: no, reaction time 3 h",0.4%
same,Decomposition efficiency of glycitin family in concentrated soybean protein,"Crude diglycosidase; pH3.7, heat treatment of enzyme: no, reaction time 6 h",0.4%
same,Decomposition efficiency of glycitin family in concentrated soybean protein,"Crude diglycosidase; pH3.7, heat treatment of enzyme: yes, reaction time 6 h",0.4%
same,Decomposition efficiency of glycitin family in roasted soy flour,"Crude diglycosidase; pH4, heat treatment of enzyme no, reaction time 0 h",not detected
same,Decomposition efficiency of glycitin family in roasted soy flour,"Crude diglycosidase; pH4, heat treatment of enzyme no, reaction time 1 h",not detected
same,Decomposition efficiency of glycitin family in roasted soy flour,"Crude diglycosidase; pH4, heat treatment of enzyme no, reaction time 3 h",not detected
same,Decomposition efficiency of glycitin family in roasted soy flour,"Crude diglycosidase; pH4, heat treatment of enzyme no, reaction time 6 h",not detected
same,Decomposition efficiency of glycitin family in roasted soy flour,"Crude diglycosidase; pH4, heat treatment of enzyme yes, reaction time 6 h",not detected
same,Decomposition efficiency of glycitin family in soymilk,"Crude diglycosidase; pH4.8, heat treatment of enzyme no, reaction time 0 h",43.2
same,Decomposition efficiency of glycitin family in soymilk,"Crude diglycosidase; pH4.8, heat treatment of enzyme no, reaction time 1 h",37.0
same,Decomposition efficiency of glycitin family in soymilk,"Crude diglycosidase; pH4.8, heat treatment of enzyme no, reaction time 3 h",21.1
same,Decomposition efficiency of glycitin family in soymilk,"Crude diglycosidase; pH4.8, heat treatment of enzyme no, reaction time 6 h",8.3
same,Decomposition efficiency of glycitin family in soymilk,"Crude diglycosidase; pH4.8, heat treatment of enzyme yes, reaction time 6 h",39.2
same,Decomposition efficiency of glycitin family in defatted soybean,"Crude diglycosidase; pH4.8, heat treatment of enzyme: no, reaction time 0 h",64.0%
same,Decomposition efficiency of glycitin family in defatted soybean,"Crude diglycosidase; pH4.8, heat treatment of enzyme: no, reaction time 1 h",40.1%
